Test [1] concerns the target Phosphatidylinositol 4,5-bisphosphate 3-kinase catalytic subunit gamma isoform (Homo sapiens) (UniProt P48736). Kind of test: Selectivity interaction (ActivX KiNativ screen (ex vivo kinase selectivity in human PBMCs)) EUB0001619a PIK3CG. The conditions noted are these: PBMC, at 1 µM. The test is classed as cell-based.
The target of test [2] is T1, Serine/threonine-protein kinase ULK2 (Homo sapiens) (UniProt Q8IYT8).
T1 sequence (whole entry): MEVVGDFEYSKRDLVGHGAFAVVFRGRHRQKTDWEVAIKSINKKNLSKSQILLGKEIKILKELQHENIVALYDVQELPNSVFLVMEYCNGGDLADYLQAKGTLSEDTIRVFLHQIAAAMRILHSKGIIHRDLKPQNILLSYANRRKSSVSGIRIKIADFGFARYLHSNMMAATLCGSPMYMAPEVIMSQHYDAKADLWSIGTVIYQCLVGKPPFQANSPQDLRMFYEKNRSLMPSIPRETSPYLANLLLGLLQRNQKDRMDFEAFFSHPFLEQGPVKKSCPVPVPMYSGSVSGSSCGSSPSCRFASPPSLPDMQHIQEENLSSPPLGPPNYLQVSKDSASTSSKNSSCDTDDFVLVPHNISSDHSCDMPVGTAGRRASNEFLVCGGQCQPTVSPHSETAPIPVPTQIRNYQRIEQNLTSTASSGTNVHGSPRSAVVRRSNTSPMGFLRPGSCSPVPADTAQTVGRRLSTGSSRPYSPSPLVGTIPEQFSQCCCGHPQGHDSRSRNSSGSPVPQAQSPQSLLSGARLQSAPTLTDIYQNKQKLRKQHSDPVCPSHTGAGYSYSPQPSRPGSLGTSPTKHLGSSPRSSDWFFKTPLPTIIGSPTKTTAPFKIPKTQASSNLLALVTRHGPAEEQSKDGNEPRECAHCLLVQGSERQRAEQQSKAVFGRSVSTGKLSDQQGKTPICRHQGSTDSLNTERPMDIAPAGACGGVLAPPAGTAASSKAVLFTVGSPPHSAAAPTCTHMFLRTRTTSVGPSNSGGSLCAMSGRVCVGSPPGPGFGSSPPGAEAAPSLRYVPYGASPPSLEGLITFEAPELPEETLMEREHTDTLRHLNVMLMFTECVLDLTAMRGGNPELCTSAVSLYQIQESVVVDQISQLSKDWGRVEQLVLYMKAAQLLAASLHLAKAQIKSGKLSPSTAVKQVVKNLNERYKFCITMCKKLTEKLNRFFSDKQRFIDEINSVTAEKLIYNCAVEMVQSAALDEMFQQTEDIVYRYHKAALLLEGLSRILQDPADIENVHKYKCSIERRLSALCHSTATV
Kind of test: Selectivity interaction (KinomeScan (DiscoverX)) EUB0001619a ULK2. The conditions noted are these: at 1 µM.

Test [3] deals with Serine/threonine-protein kinase 32C (Homo sapiens) (UniProt Q86UX6). The conditions noted are these: at 10 µM.
In test [4] the target is T2, Inhibitor of nuclear factor kappa-B kinase subunit epsilon (Homo sapiens) (UniProt Q14164).
T2 sequence (whole entry): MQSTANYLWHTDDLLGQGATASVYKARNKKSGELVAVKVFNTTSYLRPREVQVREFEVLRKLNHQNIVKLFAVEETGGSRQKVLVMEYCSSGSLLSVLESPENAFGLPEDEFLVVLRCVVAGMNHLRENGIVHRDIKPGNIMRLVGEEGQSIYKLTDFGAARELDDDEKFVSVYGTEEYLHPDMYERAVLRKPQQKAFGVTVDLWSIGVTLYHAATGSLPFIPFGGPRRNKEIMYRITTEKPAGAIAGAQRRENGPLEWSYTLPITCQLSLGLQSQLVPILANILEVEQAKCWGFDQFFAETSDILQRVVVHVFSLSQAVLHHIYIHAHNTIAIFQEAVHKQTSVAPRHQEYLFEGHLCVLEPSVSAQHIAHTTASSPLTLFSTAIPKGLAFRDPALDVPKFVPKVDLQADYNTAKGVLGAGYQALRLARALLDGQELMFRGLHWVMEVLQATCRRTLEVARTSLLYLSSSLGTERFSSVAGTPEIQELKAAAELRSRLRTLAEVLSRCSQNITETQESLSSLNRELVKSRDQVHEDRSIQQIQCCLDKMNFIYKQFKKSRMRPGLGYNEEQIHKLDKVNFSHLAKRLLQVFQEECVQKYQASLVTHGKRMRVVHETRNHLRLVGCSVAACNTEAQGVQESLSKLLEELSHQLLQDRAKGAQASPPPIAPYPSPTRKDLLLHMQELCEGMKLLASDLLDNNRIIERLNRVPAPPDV
Kind of test: Selectivity interaction (ActivX KiNativ screen (kinase selectivity in THP-1 cell lysates)) EUB0000639a IKBKE. In kind it is subcellular. The conditions noted are these: lysate, at 0.01 µM.

The target of test [5] is Tyrosine-protein kinase ABL2 (Homo sapiens, UniProt P42684). Kind of test: Selectivity interaction (ActivX KiNativ screen (kinase selectivity in THP-1 cell lysates)) EUB0000639a ABL2. The test is classed as subcellular. The conditions noted are these: lysate, at 1 µM.
In test [6] the target is T3, Calcium/calmodulin-dependent protein kinase type IV (Homo sapiens) (UniProt Q16566).
T3 sequence (whole entry): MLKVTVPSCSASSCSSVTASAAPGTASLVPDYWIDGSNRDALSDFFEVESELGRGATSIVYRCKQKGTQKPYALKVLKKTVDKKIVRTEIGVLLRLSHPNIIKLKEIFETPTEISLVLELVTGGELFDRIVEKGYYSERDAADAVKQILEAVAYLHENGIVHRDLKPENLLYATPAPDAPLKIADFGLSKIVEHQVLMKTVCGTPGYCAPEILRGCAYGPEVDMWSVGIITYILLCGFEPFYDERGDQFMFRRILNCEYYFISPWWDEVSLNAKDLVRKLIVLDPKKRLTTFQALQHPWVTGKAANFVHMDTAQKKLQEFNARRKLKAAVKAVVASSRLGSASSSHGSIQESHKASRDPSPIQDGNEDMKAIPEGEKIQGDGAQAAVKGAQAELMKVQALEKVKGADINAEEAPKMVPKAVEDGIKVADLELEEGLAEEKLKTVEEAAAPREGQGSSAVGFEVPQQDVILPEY
Nature of the test: Selectivity interaction (Kinase panel (DSF assay)) EUB0001559a CAMK4.

Test [7] has as its system Proto-oncogene tyrosine-protein kinase receptor Ret (Homo sapiens), P07949 [V804M]. Kind of test: Selectivity interaction (KinomeScan (DiscoverX)) EUB0000311b RET. The conditions noted are these: at 1 µM.
For a further test, the target named is Estrogen receptor (Homo sapiens, UniProt P03372). Nature of the test: Selectivity interaction (Estrogen alpha receptor binding assay, human recombinant ) EUB0000877a ESR1.
For test [8], the target named is Histone-lysine N-methyltransferase ASH1L (Homo sapiens) (UniProt Q9NR48). Kind of test: Selectivity interaction (Methyltransferase screen (radiometric assays, panel of 8 PRMTs, 21 protein lysine methyltransferases, 3 DNA methyltransferases, and one RNA methyltransferase)) EUB0000271b ASH1L.
Test [9] concerns the target Tyrosine-protein kinase JAK2 (Homo sapiens, UniProt O60674). Kind of test: Selectivity interaction (NanoBRET assay (HEK293T cells)) EUB0001558a JAK2. The test is classed as cell-based, HEK-293T.

SMILES strings stand for the structures.

Serine/threonine-protein kinase 32C (Homo sapiens), sequence (Q86UX6 whole entry): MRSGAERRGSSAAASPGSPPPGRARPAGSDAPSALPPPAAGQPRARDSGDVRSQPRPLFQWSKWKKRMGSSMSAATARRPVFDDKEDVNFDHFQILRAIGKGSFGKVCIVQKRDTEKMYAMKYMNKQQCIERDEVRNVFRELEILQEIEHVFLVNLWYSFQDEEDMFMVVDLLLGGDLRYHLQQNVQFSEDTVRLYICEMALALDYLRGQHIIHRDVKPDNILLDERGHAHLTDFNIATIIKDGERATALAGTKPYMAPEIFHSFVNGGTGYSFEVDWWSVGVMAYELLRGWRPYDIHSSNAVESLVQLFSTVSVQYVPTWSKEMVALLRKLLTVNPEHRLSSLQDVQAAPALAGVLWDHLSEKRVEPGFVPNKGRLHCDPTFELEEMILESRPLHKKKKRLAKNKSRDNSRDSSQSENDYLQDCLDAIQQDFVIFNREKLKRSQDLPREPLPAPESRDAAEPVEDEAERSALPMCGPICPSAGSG
Tyrosine-protein kinase JAK2, sequence (O60674 whole entry): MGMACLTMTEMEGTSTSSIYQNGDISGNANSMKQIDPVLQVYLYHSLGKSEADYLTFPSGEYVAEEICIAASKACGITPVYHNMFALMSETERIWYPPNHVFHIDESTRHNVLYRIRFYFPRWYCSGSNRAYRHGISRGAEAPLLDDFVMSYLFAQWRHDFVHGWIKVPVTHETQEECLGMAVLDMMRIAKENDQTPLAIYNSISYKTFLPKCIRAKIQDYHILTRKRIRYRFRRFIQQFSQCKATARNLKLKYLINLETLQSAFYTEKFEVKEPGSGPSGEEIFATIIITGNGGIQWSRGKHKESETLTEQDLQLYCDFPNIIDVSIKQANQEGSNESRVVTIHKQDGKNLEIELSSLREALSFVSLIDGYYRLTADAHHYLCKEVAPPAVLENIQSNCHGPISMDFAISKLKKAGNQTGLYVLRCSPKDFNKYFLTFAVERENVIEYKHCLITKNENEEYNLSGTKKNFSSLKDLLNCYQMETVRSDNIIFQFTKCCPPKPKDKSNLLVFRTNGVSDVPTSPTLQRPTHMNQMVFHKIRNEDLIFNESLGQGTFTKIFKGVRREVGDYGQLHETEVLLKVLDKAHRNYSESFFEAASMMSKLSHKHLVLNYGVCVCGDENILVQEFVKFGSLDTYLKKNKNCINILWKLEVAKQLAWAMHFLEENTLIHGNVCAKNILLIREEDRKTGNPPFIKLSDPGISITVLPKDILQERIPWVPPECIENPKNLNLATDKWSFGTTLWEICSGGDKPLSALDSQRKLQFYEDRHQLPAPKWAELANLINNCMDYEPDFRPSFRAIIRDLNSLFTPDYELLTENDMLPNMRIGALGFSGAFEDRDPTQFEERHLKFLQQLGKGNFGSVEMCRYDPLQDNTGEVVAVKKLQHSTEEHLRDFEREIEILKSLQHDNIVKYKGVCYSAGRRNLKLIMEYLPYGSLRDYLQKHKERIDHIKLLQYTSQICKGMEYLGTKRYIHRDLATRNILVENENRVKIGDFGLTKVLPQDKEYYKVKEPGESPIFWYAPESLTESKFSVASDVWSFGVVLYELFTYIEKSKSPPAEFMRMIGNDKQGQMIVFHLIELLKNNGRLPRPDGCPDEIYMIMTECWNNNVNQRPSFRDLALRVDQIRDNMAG
Phosphatidylinositol 4,5-bisphosphate 3-kinase catalytic subunit gamma isoform (Homo sapiens), sequence (P48736 whole entry, looked up, canonical isoform): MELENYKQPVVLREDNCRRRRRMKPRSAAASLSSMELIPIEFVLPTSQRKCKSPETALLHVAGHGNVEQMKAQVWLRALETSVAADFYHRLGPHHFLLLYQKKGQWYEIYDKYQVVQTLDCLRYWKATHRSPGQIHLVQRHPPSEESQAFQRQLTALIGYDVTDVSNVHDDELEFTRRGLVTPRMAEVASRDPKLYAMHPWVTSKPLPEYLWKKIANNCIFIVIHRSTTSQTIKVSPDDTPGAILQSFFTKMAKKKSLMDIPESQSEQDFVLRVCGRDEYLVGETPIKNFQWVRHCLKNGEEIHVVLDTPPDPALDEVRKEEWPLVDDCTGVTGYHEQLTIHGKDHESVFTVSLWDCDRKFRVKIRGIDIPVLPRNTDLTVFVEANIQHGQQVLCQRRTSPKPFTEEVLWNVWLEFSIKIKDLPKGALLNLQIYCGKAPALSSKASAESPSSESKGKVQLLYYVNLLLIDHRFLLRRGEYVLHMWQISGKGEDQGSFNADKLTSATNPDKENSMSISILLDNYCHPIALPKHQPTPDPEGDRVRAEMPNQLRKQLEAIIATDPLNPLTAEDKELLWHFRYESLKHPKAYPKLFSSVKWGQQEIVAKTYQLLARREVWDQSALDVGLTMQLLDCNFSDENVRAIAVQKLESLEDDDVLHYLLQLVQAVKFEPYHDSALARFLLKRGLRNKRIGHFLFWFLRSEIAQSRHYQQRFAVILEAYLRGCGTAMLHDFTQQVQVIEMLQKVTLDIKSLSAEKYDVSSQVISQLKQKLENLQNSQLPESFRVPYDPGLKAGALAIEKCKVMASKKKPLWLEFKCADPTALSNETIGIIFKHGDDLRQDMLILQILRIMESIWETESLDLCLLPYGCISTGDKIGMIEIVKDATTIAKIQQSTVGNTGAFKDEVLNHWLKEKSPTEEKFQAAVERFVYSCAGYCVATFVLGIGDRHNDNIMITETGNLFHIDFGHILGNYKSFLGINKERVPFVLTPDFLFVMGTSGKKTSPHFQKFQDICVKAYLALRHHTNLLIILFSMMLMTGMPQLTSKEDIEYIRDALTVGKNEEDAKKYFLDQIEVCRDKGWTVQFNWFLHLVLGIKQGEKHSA
Estrogen receptor, sequence (P03372 whole entry): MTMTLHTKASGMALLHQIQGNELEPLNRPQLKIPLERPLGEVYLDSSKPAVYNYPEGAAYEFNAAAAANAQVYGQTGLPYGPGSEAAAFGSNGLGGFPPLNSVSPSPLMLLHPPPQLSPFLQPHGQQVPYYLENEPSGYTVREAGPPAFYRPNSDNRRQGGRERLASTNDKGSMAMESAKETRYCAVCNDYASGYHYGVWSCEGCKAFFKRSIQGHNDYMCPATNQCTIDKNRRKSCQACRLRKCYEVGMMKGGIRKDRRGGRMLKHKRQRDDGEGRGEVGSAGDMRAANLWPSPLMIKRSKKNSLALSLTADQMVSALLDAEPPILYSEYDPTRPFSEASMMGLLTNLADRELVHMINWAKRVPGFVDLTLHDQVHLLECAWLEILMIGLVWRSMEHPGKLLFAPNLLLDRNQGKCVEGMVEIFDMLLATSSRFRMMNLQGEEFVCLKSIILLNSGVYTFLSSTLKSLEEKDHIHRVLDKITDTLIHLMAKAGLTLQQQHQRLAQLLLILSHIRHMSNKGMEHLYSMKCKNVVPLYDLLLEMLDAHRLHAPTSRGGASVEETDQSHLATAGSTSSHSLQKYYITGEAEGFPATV
Tyrosine-protein kinase ABL2, sequence (P42684 whole entry): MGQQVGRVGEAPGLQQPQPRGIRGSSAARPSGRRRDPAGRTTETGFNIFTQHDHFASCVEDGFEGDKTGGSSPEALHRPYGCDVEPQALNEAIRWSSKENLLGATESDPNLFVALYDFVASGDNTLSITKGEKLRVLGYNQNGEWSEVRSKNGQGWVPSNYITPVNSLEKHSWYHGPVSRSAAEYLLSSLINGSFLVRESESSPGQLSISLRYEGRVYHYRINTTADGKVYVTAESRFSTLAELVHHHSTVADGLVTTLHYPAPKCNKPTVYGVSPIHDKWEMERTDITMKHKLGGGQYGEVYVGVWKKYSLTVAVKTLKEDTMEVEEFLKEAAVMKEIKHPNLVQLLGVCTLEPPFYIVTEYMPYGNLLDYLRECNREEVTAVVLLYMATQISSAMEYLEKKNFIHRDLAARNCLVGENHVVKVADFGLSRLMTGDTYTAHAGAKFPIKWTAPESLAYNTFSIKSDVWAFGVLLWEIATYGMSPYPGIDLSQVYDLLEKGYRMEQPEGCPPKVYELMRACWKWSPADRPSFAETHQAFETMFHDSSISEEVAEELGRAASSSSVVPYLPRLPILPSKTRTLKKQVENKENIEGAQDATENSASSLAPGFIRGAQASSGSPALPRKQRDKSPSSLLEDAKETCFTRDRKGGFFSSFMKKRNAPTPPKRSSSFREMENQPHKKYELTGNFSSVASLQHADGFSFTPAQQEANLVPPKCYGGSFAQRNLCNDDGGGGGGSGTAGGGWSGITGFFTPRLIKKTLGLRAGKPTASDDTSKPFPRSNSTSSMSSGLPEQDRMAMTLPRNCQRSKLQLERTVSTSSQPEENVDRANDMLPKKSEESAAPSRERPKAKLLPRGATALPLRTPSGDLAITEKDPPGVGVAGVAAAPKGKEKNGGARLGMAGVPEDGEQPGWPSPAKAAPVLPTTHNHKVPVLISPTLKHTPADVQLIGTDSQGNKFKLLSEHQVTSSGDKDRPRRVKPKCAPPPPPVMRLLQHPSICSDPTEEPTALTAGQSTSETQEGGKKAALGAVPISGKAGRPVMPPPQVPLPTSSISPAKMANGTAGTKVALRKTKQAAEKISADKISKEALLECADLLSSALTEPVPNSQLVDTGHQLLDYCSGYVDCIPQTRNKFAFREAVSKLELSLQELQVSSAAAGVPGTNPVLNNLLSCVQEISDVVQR

With `N#Cc1cccc(-c2c[nH]c3ncnc(N4CCOCC4)c23)c1`, in test [1], the % of inhibition was -6%. Also, the % of control in test [2] came out at 69%.
Compound `Cc1cc([C@@H](C)Nc2ccccc2C(=O)O)c2nc(N3CCOCC3)cc(=O)n2c1` [AZD-6482] returned a % of control in test [3] of 82%.
As for `CC[C@@H]1[C@H](F)C(=O)N[C@@H]1COc1nccc2cc(C(N)=O)c(OC)cc12` [ZIMLOVISERTIB], the % of inhibition is -51.9% in [4] and -13.2% in [5].
`CN(C(=O)c1cnn2cccnc12)c1cc2c(cc1N1CCOCC1)C(=O)N(C[C@@H](F)C(C)(C)O)C2`: in test [6], the dTM is -0.4 K.
Consider `CCc1ccccc1C(=O)Nc1n[nH]c2c(C)c(F)c(C3C(C#N)=C(C)N(C)C(C)=C3C#N)cc12` [BAY-3827], for which the % of control in test [7] amounted to 11%.
`CCC(=O)N1CC[C@H](Nc2ncnc3c2CN(c2cnc(OC)c(C(F)(F)F)c2)CC3)C1` [LENIOLISIB]: the IC50 at Estrogen receptor was above 30 µM.
Turning to `Cc1cc(C)cc([C@@H]2c3cc(C)ccc3NC(=O)CN2C(=O)c2ccc(Br)s2)c1`, the % of activity turned out to be 97.3% in test [8] (at 1 µM) and 105% in [8] (at 10 µM).
Turning to `CC(C)(O)[C@H](F)CN1Cc2cc(NC(=O)c3cnn4cccnc34)c(N3CCOCC3)cc2C1=O`, the EC50 in [9] was above 50 µM.

Values taken from ChEMBL document CHEMBL5465560, “Selectivity Literature for EUbOPEN Chemogenomic Library” (2024).
